From US5045458A, “Antibiotics PB-6042S” (Shionogi & Co., Ltd., priority 1988, dated 1991)
Converted amounts (≈) assume the structure as drawn. Like-named read-outs stand apart in the source and are kept apart here.

Legend:
[1] = tested on: B. vulgatus ATCC29327; test: MIC against anaerobic bacteria; format: cell-based; details: Phocaeicola vulgatus
[2] = tested on: C. perfringens SAKAI; test: microbe, parasite or virus in culture; format: cell-based; details: Clostridium perfringens
[3] = tested on: B. thetaiotaomicron WAL3304; test: MIC against anaerobic bacteria; format: cell-based; details: Bacteroides thetaiotaomicron
[4] = tested on: L. plantarum JCM1100; test: MIC against anaerobic bacteria; format: cell-based; details: Lactiplantibacillus plantarum; L. plantarum JCM1100; read-out: MIC
[5] = tested on: P. asaccharolyticus ATCC14963; test: MIC against anaerobic bacteria; format: cell-based; details: Peptoniphilus asaccharolyticus
[6] = tested on: F. mortiferum ATCC9817; test: MIC against anaerobic bacteria; format: cell-based; details: Fusobacterium mortiferum; F. mortiferum ATCC9817; read-out: MIC
[7] = tested on: B. longum ATCC15707; test: MIC against anaerobic bacteria; format: cell-based; details: Bifidobacterium longum, ATCC15707
[8] = tested on: P. aeruginosa A25619; test: MIC against aerobic bacteria; details: Pseudomonas aeruginosa
[9] = tested on: C. perfringens ATCC13124; test: microbe, parasite or virus in culture; format: cell-based; details: Clostridium perfringens
[10] = tested on: B. ovatus 2505; test: MIC against anaerobic bacteria; format: cell-based; details: Bacteroides ovatus
[11] = tested on: S. pneumoniae TYPE 1; test: MIC against aerobic bacteria; details: Streptococcus pneumoniae, TYPE1
[12] = tested on: E. lentum II-1; test: MIC against anaerobic bacteria; format: cell-based; details: Eggerthella lenta, II1
[13] = tested on: F. nucleatum ATCC25586; test: MIC against anaerobic bacteria; format: cell-based; details: Fusobacterium nucleatum
[14] = tested on: P. micros VPI5464-1; test: MIC against anaerobic bacteria; format: cell-based; details: Parvimonas micra, VPI54641
[15] = tested on: S. constellatus ATCC27823; test: MIC against anaerobic bacteria; format: cell-based; details: Streptococcus constellatus
[16] = tested on: F. varium ATCC8501; test: MIC against anaerobic bacteria; format: cell-based; details: Fusobacterium varium
[17] = tested on: E. aerofaciens ATCC25986; test: MIC against anaerobic bacteria; format: cell-based; details: Collinsella aerofaciens
[18] = tested on: B. distasonis JU-11-1; test: MIC against anaerobic bacteria; format: cell-based; details: Parabacteroides distasonis, JU111
[19] = tested on: P. acens ATCC11827; test: MIC against anaerobic bacteria; format: cell-based
[20] = tested on: S. aureus FDA JC-1; test: MIC against aerobic bacteria; details: Staphylococcus aureus, FDAJC1
[21] = tested on: P. anaerobius B-38; test: MIC against anaerobic bacteria; format: cell-based; details: Peptostreptococcus anaerobius, B38
[22] = filter paper electrophoresis and bioautography (acidic property); format: physicochemical
Text: Other physicochemical properties of PB-6042s in the form of sodium salt are listed below.

[23] = tested on: E. coli NIHJ JC-2; test: MIC against aerobic bacteria; details: Escherichia coli, NIHJJC2
[24] = tested on: L. ruminis ATCC27780; test: MIC against anaerobic bacteria; format: cell-based
[25] = tested on: P. prevotii ATCC9321; test: MIC against anaerobic bacteria; format: cell-based; details: Anaerococcus prevotii
[26] = tested on: B. fragilis GM7000; test: MIC against anaerobic bacteria; format: cell-based; details: Bacteroides fragilis
[27] = tested on: K. pneumoniae SR1; test: MIC against aerobic bacteria; details: Klebsiella pneumoniae
[28] = tested on: S. pyogenes C-203; test: MIC against aerobic bacteria; details: Streptococcus pyogenes, C203
[29] = tested on: P. vulgaris CN-329; test: MIC against aerobic bacteria; details: Proteus vulgaris, CN329
[30] = tested on: B. adolescentis JCM1250; test: MIC against anaerobic bacteria; format: cell-based; details: Bifidobacterium adolescentis; B. adolescentis JCM1250; read-out: MIC
[31] = tested on: B. melaninogenicus GAI0413; test: MIC against anaerobic bacteria; format: cell-based; details: B. melaninogenicus GAI0413; read-out: MIC
[32] = tested on: F. necrophorum ATCC25286; test: MIC against anaerobic bacteria; format: cell-based; details: Fusobacterium necrophorum
[33] = tested on: B. bifidum JCM1122; test: MIC against anaerobic bacteria; format: cell-based; details: Bifidobacterium bifidum; B. bifidum JCM1122; read-out: MIC
[34] = tested on: C. difficile ATCC17857; test: MIC against anaerobic bacteria; format: cell-based; details: Clostridioides difficile
[35] = tested on: S. aureus SR14(R); test: MIC against aerobic bacteria; details: Staphylococcus aureus
[36] = tested on: anaerobic bacteria; test: antibacterial activity against anaerobic bacteria (summary); format: cell-based; details: in words
[37] = tested on: B. fragilis ATCC25285; test: MIC against anaerobic bacteria; format: cell-based; details: Bacteroides fragilis
[38] = tested on: E. limosum ATCC8486; test: MIC against anaerobic bacteria; format: cell-based; details: Eubacterium limosum
[39] = tested on: V. parvula ATCC10790; test: MIC against anaerobic bacteria; format: cell-based; details: Veillonella parvula
[40] = acidic property of reduced PB-6042A; details: after H2/PtO2 reduction
[41] = antibacterial activity and acidic property of reduced PB-6042A: antibacterial activity; format: cell-based; details: after H2/PtO2 reduction

| Compound | MIC [2] | MIC [4] | MIC [6] | MIC [7] | MIC [8] | MIC [9] | MIC [11] | MIC [12] | MIC [13] | MIC [14] | MIC [15] | MIC [16] | MIC [19] | MIC [20] | MIC [21] | acidic property [22] | MIC [23] | MIC [27] | MIC [28] | MIC [29] | other results |
| --- | --- | --- | --- | --- | --- | --- | --- | --- | --- | --- | --- | --- | --- | --- | --- | --- | --- | --- | --- | --- | --- |
| C=C1OC(=O)C(C(=O)CCCCCCCCCCC)=C1O [PB-6042C] | 3.13 µg/mL (≈ 10.6 µM) | 6.25 µg/mL (≈ 21.2 µM) | 25 µg/mL (≈ 84.9 µM) | 3.13 µg/mL (≈ 10.6 µM) | > 100 µg/mL | 3.13 µg/mL (≈ 10.6 µM) | 12.5 µg/mL (≈ 42.5 µM) | 3.13 µg/mL (≈ 10.6 µM) | 12.5 µg/mL (≈ 42.5 µM) | 0.78 µg/mL (≈ 2.65 µM) | 0.78 µg/mL (≈ 2.65 µM) | > 100 µg/mL | 0.78 µg/mL (≈ 2.65 µM) | > 100 µg/mL | 0.78 µg/mL (≈ 2.65 µM) | acidic substances | > 100 µg/mL | > 100 µg/mL | 12.5 µg/mL (≈ 42.5 µM) | > 100 µg/mL | MIC ([1]; ATCC29327): 3.13 µg/mL (≈ 10.6 µM); MIC ([3]; WAL3304): 3.13 µg/mL (≈ 10.6 µM); MIC ([5]; ATCC14963): 3.13 µg/mL (≈ 10.6 µM); MIC [10]; 2505: 3.13 µg/mL (≈ 10.6 µM); MIC ([17]; ATCC25986): 3.13 µg/mL (≈ 10.6 µM); MIC [18]: 3.13 µg/mL (≈ 10.6 µM); MIC ([24]; L. ruminis ATCC27780, read-out: MIC): 1.56 µg/mL (≈ 5.3 µM); MIC ([25]; ATCC9321): 3.13 µg/mL (≈ 10.6 µM); MIC ([26]; GM7000): 3.13 µg/mL (≈ 10.6 µM); MIC [30]: 0.78 µg/mL (≈ 2.65 µM); MIC [31]: 6.25 µg/mL (≈ 21.2 µM); MIC [32]: 12.5 µg/mL (≈ 42.5 µM); MIC [33]: 6.25 µg/mL (≈ 21.2 µM); MIC [34]: 0.78 µg/mL (≈ 2.65 µM); MIC [35]: > 100 µg/mL; growth inhibition of anaerobic bacteria [36]: inhibit the growth of anaerobic bacteria, selectively; MIC ([37]; B. fragilis ATCC25285, read-out: MIC): 1.56 µg/mL (≈ 5.3 µM); MIC ([38]; E. limosum ATCC8486, read-out: MIC): 1.56 µg/mL (≈ 5.3 µM) |
| C=C1OC(=O)C(C(=O)CCCC/C=C\CCCCCCC)=C1O [PB-6042D] | 3.13 µg/mL (≈ 9.77 µM) | 6.25 µg/mL (≈ 19.5 µM) | > 100 µg/mL | 3.13 µg/mL (≈ 9.77 µM) | > 100 µg/mL | 3.13 µg/mL (≈ 9.77 µM) | 12.5 µg/mL (≈ 39 µM) | 3.13 µg/mL (≈ 9.77 µM) | 25 µg/mL (≈ 78 µM) | 0.78 µg/mL (≈ 2.43 µM) | 1.56 µg/mL (≈ 4.87 µM) | > 100 µg/mL | 1.56 µg/mL (≈ 4.87 µM) | > 100 µg/mL | 1.56 µg/mL (≈ 4.87 µM) | acidic substances | > 100 µg/mL | > 100 µg/mL | 12.5 µg/mL (≈ 39 µM) | > 100 µg/mL | MIC ([1]; B. vulgatus ATCC29327, read-out: MIC): 12.5 µg/mL (≈ 39 µM); MIC ([3]; B. thetaiotaomicron WAL3304, read-out: MIC): 6.25 µg/mL (≈ 19.5 µM); MIC ([5]; P. asaccharolyticus ATCC14963, read-out: MIC): 6.25 µg/mL (≈ 19.5 µM); MIC ([10]; B. ovatus 2505, read-out: MIC): 12.5 µg/mL (≈ 39 µM); MIC ([17]; E. aerofaciens ATCC25986, read-out: MIC): 6.25 µg/mL (≈ 19.5 µM); MIC ([18]; B. distasonis JU-11-1, read-out: MIC): 12.5 µg/mL (≈ 39 µM); MIC [24]: 3.13 µg/mL (≈ 9.77 µM); MIC ([25]; P. prevotii ATCC9321, read-out: MIC): 6.25 µg/mL (≈ 19.5 µM); MIC ([26]; B. fragilis GM7000, read-out: MIC): 6.25 µg/mL (≈ 19.5 µM); MIC [30]: 6.25 µg/mL (≈ 19.5 µM); MIC [31]: 12.5 µg/mL (≈ 39 µM); MIC [39]: > 100 µg/mL; MIC [33]: 6.25 µg/mL (≈ 19.5 µM); MIC [34]: 1.56 µg/mL (≈ 4.87 µM); MIC [35]: 12.5 µg/mL (≈ 39 µM); growth inhibition of anaerobic bacteria [36]: inhibit the growth of anaerobic bacteria, selectively; MIC ([37]; ATCC25285): 3.13 µg/mL (≈ 9.77 µM); MIC ([38]; ATCC8486): 3.13 µg/mL (≈ 9.77 µM) |
| CCCCCCCCCC(=O)C1=C(O)C(C)OC1=O (stereo not drawn) [reduced product] | – | – | – | – | – | – | – | – | – | – | – | – | – | – | – | – | – | – | – | – | acidic property of reduced product [40]: maintained antibacterial activity and acidic property; antibacterial activity of reduced product [41]: maintained antibacterial activity |
